{"source": "paper PMC9386018", "about": "“A lymphatic-absorbed multi-targeted kinase inhibitor for myelofibrosis therapy” (Nature Communications, 2022)", "key": {"PI3Kγ": {"molecular_target": "PI3Kγ (Homo sapiens, UniProt P48736)", "sequence (P48736 whole entry, canonical isoform)": "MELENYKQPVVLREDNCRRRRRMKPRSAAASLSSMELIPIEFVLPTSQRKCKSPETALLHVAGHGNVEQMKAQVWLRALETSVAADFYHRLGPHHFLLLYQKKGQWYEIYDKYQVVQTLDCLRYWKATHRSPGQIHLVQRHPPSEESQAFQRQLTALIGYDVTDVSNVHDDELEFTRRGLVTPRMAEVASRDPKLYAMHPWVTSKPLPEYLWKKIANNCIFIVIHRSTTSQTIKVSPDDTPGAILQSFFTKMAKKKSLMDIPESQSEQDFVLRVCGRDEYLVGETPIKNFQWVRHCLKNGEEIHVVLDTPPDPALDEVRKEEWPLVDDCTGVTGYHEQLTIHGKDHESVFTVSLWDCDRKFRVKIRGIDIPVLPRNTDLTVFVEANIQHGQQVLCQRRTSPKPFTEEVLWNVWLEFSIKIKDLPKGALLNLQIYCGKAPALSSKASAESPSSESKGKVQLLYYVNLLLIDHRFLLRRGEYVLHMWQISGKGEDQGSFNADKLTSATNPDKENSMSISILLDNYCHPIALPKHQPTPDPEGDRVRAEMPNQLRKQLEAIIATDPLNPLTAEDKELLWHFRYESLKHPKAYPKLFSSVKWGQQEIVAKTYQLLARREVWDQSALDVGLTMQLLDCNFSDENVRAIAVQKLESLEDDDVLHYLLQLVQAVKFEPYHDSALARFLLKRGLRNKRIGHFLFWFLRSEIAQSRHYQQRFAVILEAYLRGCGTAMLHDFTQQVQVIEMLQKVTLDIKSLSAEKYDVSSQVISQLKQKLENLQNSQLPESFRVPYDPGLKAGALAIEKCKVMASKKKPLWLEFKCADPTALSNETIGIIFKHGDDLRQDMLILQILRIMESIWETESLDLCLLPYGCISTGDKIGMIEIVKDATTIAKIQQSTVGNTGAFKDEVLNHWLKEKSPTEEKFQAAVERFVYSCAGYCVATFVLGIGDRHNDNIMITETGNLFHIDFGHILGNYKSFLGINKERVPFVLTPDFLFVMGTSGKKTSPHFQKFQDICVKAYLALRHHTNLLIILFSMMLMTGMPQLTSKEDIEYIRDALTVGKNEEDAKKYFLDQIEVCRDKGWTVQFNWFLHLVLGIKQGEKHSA", "experiment": "Target kinase 10-point inhibition assay, PI3Kγ", "type": "biochemical", "conditions": "PI3K gamma, replicates", "procedure": "(§1) Quantitation of kinase inhibition was carried out by Life Technologies (Madison, WI) using the SelectScreen profiling platforms Z’-LYTE^TM and Adapta^TM. Single-point broad panel kinome screening was performed at 2.5 µM LP-182 against all kinases within the Z’-LYTE^TM and Adapta^TM assays (321 kinase isoforms, holoenzymes, or mutant variants). The average percent kinase inhibition from replicate data was ranked low to high, converted to a compatible identifier format, then input into Coral Human Kinome Visualization software for presentation analysis. […] Scaling of evolutionary distance for PI kinases is only relative and is based on literature analysis[62],[63]. Average percent kinome inhibition values from replicate data are supplied in Source Data file. […]. Corrected data was normalized to vehicle treated control values, and dose response percent kinase activity was analyzed by non-linear regression for determination of IC50 values."}, "mTOR": {"molecular_target": "mTOR (Homo sapiens, UniProt P42345)", "experiment": "Target kinase 10-point inhibition assay, mTOR", "type": "biochemical", "conditions": "replicates", "procedure": "as §1"}, "[1]": {"molecular_target": "Target kinase isoforms (PI3K, mTOR, RAF, MEK) (Homo sapiens, UniProt P42345)", "experiment": "Target kinase isoforms 10-point IC50 determination (Supplementary Fig. 7)", "type": "biochemical", "conditions": "mTOR", "source_text": "The average percent kinase inhibition from replicate data was ranked low to high, converted to a compatible identifier format, then input into Coral Human Kinome Visualization software for presentation analysis. […] Scaling of evolutionary distance for PI kinases is only relative and is based on literature analysis[62],[63]. Average percent kinome inhibition values from replicate data are supplied in Source Data file. […] Corrected data was normalized to vehicle treated control values, and dose response percent kinase activity was analyzed by non-linear regression for determination of IC50 values."}, "SET-2 cells": {"system": "SET-2 cells", "experiment": "SET-2 proliferation assay (CellTiter-Fluor)", "type": "cell-based, human", "conditions": "72 h, replicates (Fig. 2d)", "procedure": "Viable cells were counted by CellTiter-Fluor Assay (Promega) according to manufacturer’s protocol, and all fluorescence values were corrected by a no-cell control. […] Caspase activity was measured by Caspase-Glo 3/7 assay (Promega) according to the manufacturer’s protocol, and all luminescence values were corrected by a no-cell control. Dose response proliferation and Caspase activation data was normalized to vehicle treated control cells and analyzed by non-linear regression for determination of IC50 values. Data was generated from n = 3 independent experiments performed in replicate."}, "[2]": {"experiment": "Pharmacokinetic analysis of plasma after intravenous and oral dosing", "conditions": "plasma, mice, analyte = label, individual animals", "quoted_text": "Samples were centrifuged at 15,000 rpm for 10 min, then blood plasma was collected from the upper layer and frozen at −80 °C until analysis. […] Sample processing, chromatographic separation, MS, and MS/MS parameters used for analysis were determined by the core. […] Standard curves for peak area ratio of compound to internal standard (Astd/AIstd) vs. compound concentration were used to determine sample analyte concentrations through linear regression with a weighting average of 1/X^2. […] All pharmacokinetic parameters were estimated using non-compartmental analysis with Phoenix/WINONLIN, and provided by the core along with calculated sample analyte concentrations. Data was generated from n ≥ 3 individual animals sampled per time point per compound for each method of dosing."}}, "note": "Where “and” joins values, the source holds several entries; their conditions need not be identical. Equal values may be shown once.", "data": [{"smiles": "O=S(=O)(Nc1cc(-c2ccc3ncc(N4CCNCC4)nc3c2)cnc1Cl)c1ccc(F)cc1", "note": "[LP-527, N-(2-chloro-5-(3-(piperazin-1-yl)quinoxalin-6-yl)pyridin-3-yl)-4-fluorobenzenesulfonamide]", "values": [{"measurement": "activity at 18.7 pM", "setting": "PI3Kγ; 0.0187 nM", "value": 98, "unit": "%"}, {"measurement": "Kinase Activity (%)", "setting": "PI3Kγ; 0.0187 nM, 18.7 pM", "value": "118% and 115% and 109%"}, {"measurement": "Kinase Activity (%)", "setting": "PI3Kγ; 0.0562 nM, 56.2 pM", "value": "103% and 91% and 124%"}, {"measurement": "Kinase Activity (%)", "setting": "PI3Kγ; 0.495 nM, 0.000495 µM", "value": "94% (2×) and 75% and 83% and 72% and 100% and 97% and 99% and 96%"}, {"measurement": "Kinase Activity (%)", "setting": "PI3Kγ; 1.52 nM, 0.00152 µM", "value": "67% and 68% and 73% and 64% and 69% (2×) and 94% and 93% and 92% and 65%"}, {"measurement": "Kinase Activity (%)", "setting": "PI3Kγ; 4.57 nM, 0.00457 µM", "value": "52% and 53% and 49% and 45% and 47% and 76% and 79% and 62% and 70% and 55%"}, {"measurement": "Kinase Activity (%)", "setting": "PI3Kγ; 41.2 nM, 0.0412 µM", "value": "18% and 7% and 11% and 10% and 9% and 25% and 24% and 17% and 23% and 14%"}, {"measurement": "Kinase Activity (%)", "setting": "PI3Kγ; 123 nM, 0.123 µM", "value": "5% and 3% (2×) and 6% and 4% and 11% and 10% (2×) and 9% and 8%"}, {"measurement": "Kinase Activity (%)", "setting": "PI3Kγ; 1110 nM, 1.11 µM", "value": "0% (4×) and 8% and 1%"}, {"measurement": "Kinase Activity (%)", "setting": "PI3Kγ; 3330 nM, 3.33 µM", "value": "0% (5×) and 3%"}, {"measurement": "Kinase Activity (%)", "setting": "PI3Kγ; 10000 nM, 10 µM", "value": "3% and 0% (4×) and 8%"}, {"measurement": "activity at 6.09 pM", "setting": "PI3Kγ; […]", "value": 102, "unit": "%"}, {"measurement": "activity at 0.000495 µM", "setting": "mTOR; 0.495 nM", "value": 96, "unit": "%"}, {"measurement": "Kinase Activity (%)", "setting": "mTOR; 0.495 nM, 0.000495 µM", "value": "89% and 90% (2×) and 92%"}, {"measurement": "activity at 0.00152 µM", "setting": "mTOR; 1.52 nM", "value": 78, "unit": "%"}, {"measurement": "Kinase Activity (%)", "setting": "mTOR; 1.52 nM, 0.00152 µM", "value": "80% and 77% and 74% and 83% and 76%"}, {"measurement": "activity at 0.00457 µM", "setting": "mTOR; 4.57 nM", "value": 63, "unit": "%"}, {"measurement": "Kinase Activity (%)", "setting": "mTOR; 4.57 nM, 0.00457 µM", "value": "61% and 56% and 52% and 57% and 58%"}, {"measurement": "Kinase Activity (%)", "setting": "mTOR; 41.2 nM, 0.0412 µM", "value": "15% and 14% and 8% and 12% and 0% and 10%"}, {"measurement": "Kinase Activity (%)", "setting": "mTOR; 123 nM, 0.123 µM", "value": "7% (2×) and 3% and 2% and 5% and 0%"}, {"measurement": "Kinase Activity (%)", "setting": "mTOR; 1110 nM, 1.11 µM", "value": "5% and 3% and 2% and -4% and -2% and -1%"}, {"measurement": "Kinase Activity (%)", "setting": "mTOR; 3330 nM, 3.33 µM", "value": "3% and 2% and 1% and -3% and -2% and -4%"}, {"measurement": "Kinase Activity (%)", "setting": "mTOR; 10000 nM, 10 µM", "value": "6% and 3% and 0% and -1% and 1% and -2%"}, {"measurement": "activity at 0.000495 µM", "setting": "[1]; concentration 0.495 nM", "value": 96, "unit": "%"}, {"measurement": "Kinase Activity (%) mTOR", "setting": "[1]; concentration 0.495 nM, 0.000495 µM", "value": "89% and 90% and 92%"}, {"measurement": "activity at 0.00152 µM", "setting": "[1]; concentration 1.52 nM", "value": 78, "unit": "%"}, {"measurement": "Kinase Activity (%) mTOR", "setting": "[1]; concentration 1.52 nM, 0.00152 µM", "value": "80% and 77% and 74% and 83% and 76%"}, {"measurement": "activity at 0.00457 µM", "setting": "[1]; concentration 4.57 nM", "value": 63, "unit": "%"}, {"measurement": "Kinase Activity (%) mTOR", "setting": "[1]; concentration 4.57 nM, 0.00457 µM", "value": "61% and 56% and 52% and 57% and 58%"}, {"measurement": "Kinase Activity (%) mTOR", "setting": "[1]; concentration 123 nM, 0.123 µM", "value": "7% and 3% and 2% and 5% and 0%"}, {"measurement": "Kinase Activity (%) mTOR", "setting": "[1]; concentration 1110 nM, 1.11 µM", "value": "5% and 3% and 2% and -4% and -2% and -1%"}, {"measurement": "Kinase Activity (%) mTOR", "setting": "[1]; concentration 3330 nM, 3.33 µM", "value": "3% and 2% and 1% and -3% and -2% and -4%"}, {"measurement": "Kinase Activity (%) mTOR", "setting": "[1]; concentration 10000 nM, 10 µM", "value": "6% and 3% and 0% and -1% and 1% and -2%"}, {"measurement": "Growth (%)", "setting": "SET-2 cells; 0.0390625 µM", "value": "97.7197% and 103.197% and 95.0232% and 96.0199% and 87.1186% and 84.2432%"}, {"measurement": "Growth (%)", "setting": "SET-2 cells; 0.078125 µM", "value": "102.201% and 95.8185% and 100.256% and 94.6633% and 89.3668% and 84.7402%"}, {"measurement": "Growth (%)", "setting": "SET-2 cells; 0.15625 µM", "value": "60.7367% and 65.6255% and 73.87% and 70.9074% and 80.6697% and 85.462%"}, {"measurement": "Growth (%)", "setting": "SET-2 cells; 0.3125 µM", "value": "89.6622% and 88.0779% and 85.9694% and 85.0557% and 87.935% and 90.4791%"}, {"measurement": "Growth (%)", "setting": "SET-2 cells; 0.625 µM", "value": "81.0162% and 91.3823% and 77.1925% and 82.0932% and 77.6879% and 82.066%"}, {"measurement": "Growth (%)", "setting": "SET-2 cells; 5 µM", "value": "12.7992% and 7.412% and 15.3388% and 14.5913% and 45.9761% and 39.8941%"}, {"measurement": "Growth (%)", "setting": "SET-2 cells; 10 µM", "value": "-3.542% and -5.534% and -4.236% and 0.443% and 15.3648% and 16.0393%"}, {"measurement": "Growth (%)", "setting": "SET-2 cells; 20 µM", "value": "-8.838% and -10.5585% and -11.075% and -10.5212% and 6.443% and 9.661%"}, {"measurement": "concentration at 0.167 h", "setting": "[2]; female, CD-1, mouse, iv, 15 mg kg^−1, Concentration (ng/mL), single i.v. LP-182 15 mg kg^−1, 0.167 h", "value": 15.5, "unit": "ng/mL"}, {"measurement": "concentration at 0.5 h", "setting": "[2]; female, CD-1, mouse, iv, 15 mg kg^−1, Concentration (ng/mL), single i.v. LP-182 15 mg kg^−1, 0.5 h", "value": 7.17, "unit": "ng/mL"}, {"measurement": "concentration at 1 h", "setting": "[2]; female, CD-1, mouse, iv, 15 mg kg^−1, Concentration (ng/mL), single i.v. LP-182 15 mg kg^−1, 1 h", "value": 6.53, "unit": "ng/mL"}, {"measurement": "concentration at 0.5 h", "setting": "[2]; female, CD-1, mouse, po, 400 mg kg^−1, Concentration (ng/mL), single p.o. LP-182 400 mg kg^−1, 0.5 h", "value": 9.62, "unit": "ng/mL"}, {"measurement": "concentration at 16 h", "setting": "[2]; female, CD-1, mouse, po, 400 mg kg^−1, Concentration (ng/mL), single p.o. LP-182 400 mg kg^−1, 16 h", "value": 19, "unit": "ng/mL"}, {"measurement": "Concentration", "setting": "[2]; single i.v. LP-182 15 mg kg^−1, 0.167 h", "value": "14.8 ng/mL and 14.5 ng/mL"}, {"measurement": "Concentration", "setting": "[2]; single i.v. LP-182 15 mg kg^−1, 0.5 h", "value": "7.97 ng/mL and 7.89 ng/mL"}, {"measurement": "Concentration", "setting": "[2]; single i.v. LP-182 15 mg kg^−1, 1 h", "value": "5.65 ng/mL and 6.42 ng/mL"}, {"measurement": "Concentration", "setting": "[2]; single i.v. LP-182 15 mg kg^−1, 2 h", "value": "2.97 ng/mL and 2.53 ng/mL and 1.08 ng/mL"}, {"measurement": "Concentration", "setting": "[2]; single p.o. LP-182 400 mg kg^−1, 0.167 h", "value": "7.25 ng/mL and 15.1 ng/mL and 1.83 ng/mL"}, {"measurement": "Concentration", "setting": "[2]; single p.o. LP-182 400 mg kg^−1, 0.5 h", "value": "13.1 ng/mL and 15 ng/mL"}, {"measurement": "Concentration", "setting": "[2]; single p.o. LP-182 400 mg kg^−1, 1 h", "value": "29.3 ng/mL and 56.7 ng/mL and 12.7 ng/mL"}, {"measurement": "Concentration", "setting": "[2]; single p.o. LP-182 400 mg kg^−1, 2 h", "value": "12.6 ng/mL and 14.5 ng/mL and 5.44 ng/mL"}, {"measurement": "Concentration", "setting": "[2]; single p.o. LP-182 400 mg kg^−1, 4 h", "value": "23.5 ng/mL and 11.5 ng/mL and 14 ng/mL"}, {"measurement": "Concentration", "setting": "[2]; single p.o. LP-182 400 mg kg^−1, 7 h", "value": "27.3 ng/mL and 11.6 ng/mL and 31.5 ng/mL"}, {"measurement": "Concentration", "setting": "[2]; single p.o. LP-182 400 mg kg^−1, 16 h", "value": "12.8 ng/mL and 13.1 ng/mL"}, {"measurement": "Concentration", "setting": "[2]; single p.o. LP-182 400 mg kg^−1, 24 h", "value": "24.5 ng/mL and 9.81 ng/mL and 21.4 ng/mL"}]}]}
